The record followed here is ChEMBL document CHEMBL1123630, “Stereospecificity in allergic contact dermatitis to simple substituted methylene lactone derivatives” (1987).

Holding throughout (assay type): functional
Assay [1] is filed under the species Cavia porcellus. As to the kind of experiment: Evaluated for the open epicutaneous test and no. of animals showing erythema and swelling(2) by (+)4,5-Dimethyl-3-methylene-dihydro-furan-2-one sensitization in guinea pigs.
For assay [2], the species on record is Cavia porcellus. As to the kind of experiment: Evaluated for the open epicutaneous test and no. of animals showing erythema and swelling(2) by (-)4,5-Dimethyl-3-methylene-dihydro-furan-2-one sensitization in guinea pigs.
The species entered for assay [3] is Cavia porcellus. As to the kind of experiment: Evaluated for the open epicutaneous test and no. of animals showing erythema covering part (0.5) by (+)4,5-Dimethyl-3-methylene-dihydro-furan-2-one sensitization in guinea pigs.
The species entered for assay [4] is Cavia porcellus. As to the kind of experiment: Evaluated for the open epicutaneous test and no. of animals showing erythema covering part (0.5) by (-)4,5-Dimethyl-3-methylene-dihydro-furan-2-one sensitization in guinea pigs.
The species entered for assay [5] is Cavia porcellus. The assay can be described thus: Evaluated for the open epicutaneous test and no. of animals showing erythema covering the whole (1) by (+)4,5-Dimethyl-3-methylene-dihydro-furan-2-one sensitization in guinea pigs.
Assay [6] is filed under the species Cavia porcellus. The assay can be described thus: Evaluated for the open epicutaneous test and no. of animals showing erythema covering the whole (1) by (-)4,5-Dimethyl-3-methylene-dihydro-furan-2-one sensitization in guinea pigs.
For assay [7], the species on record is Cavia porcellus. The assay can be described thus: Evaluated for the open epicutaneous test and no. of animals showing no reaction (0) by (+)4,5-Dimethyl-3-methylene-dihydro-furan-2-one sensitization in guinea pigs.
Assay [8] is filed under the species Cavia porcellus. As to the kind of experiment: Evaluated for the open epicutaneous test and no. of animals showing no reaction (0) by (-)4,5-Dimethyl-3-methylene-dihydro-furan-2-one sensitization in guinea pigs.
For assay [9], the species on record is Cavia porcellus. As to the kind of experiment: Number of positive animals showing sensitization to (+)4,5-Dimethyl-3-methylene-dihydro-furan-2-one in 8 guinea pigs was determined by open epicutaneous test for the compound.
The species named for assay [10] is Cavia porcellus. The assay can be described thus: Number of positive animals showing sensitization to (-)4,5-Dimethyl-3-methylene-dihydro-furan-2-one in 8 guinea pigs was determined by open epicutaneous test for the compound.
The species entered for assay [11] is Cavia porcellus. The assay can be described thus: Mean reaction by (-)4,5-Dimethyl-3-methylene-dihydro-furan-2-one sensitization in guinea pigs was determined by open epicutaneous test fo the compound.
The species named for assay [12] is Cavia porcellus. As to the kind of experiment: Mean reaction by (+)4,5-Dimethyl-3-methylene-dihydro-furan-2-one sensitization in guinea pigs was determined by open epicutaneous test fo the compound.
The species named for assay [13] is Cavia porcellus. The assay can be described thus: Number of positive animals showing sensitization to (-)4-Methyl-3-methylene-dihydro-furan-2-one in 6 guinea pigs was determined by open epicutaneous test for the compound.
The species named for assay [14] is Cavia porcellus. The assay can be described thus: Evaluated for the open epicutaneous test and no. of animals showing erythema and swelling(2) by (+)4-Methyl-3-methylene-dihydro-furan-2-one sensitization in guinea pigs.
For assay [15], the species on record is Cavia porcellus. The assay can be described thus: Evaluated for the open epicutaneous test and no. of animals showing erythema and swelling(2) by (-)4-Methyl-3-methylene-dihydro-furan-2-one sensitization in guinea pigs.
The species entered for assay [16] is Cavia porcellus. As to the kind of experiment: Evaluated for the open epicutaneous test and no. of animals showing erythema covering part (0.5) by (-)4-Methyl-3-methylene-dihydro-furan-2-one sensitization in guinea pigs.
Assay [17] is filed under the species Cavia porcellus. As to the kind of experiment: Evaluated for the open epicutaneous test and no. of animals showing erythema covering the whole (1) by (-)4-Methyl-3-methylene-dihydro-furan-2-one sensitization in guinea pigs.
For assay [18], the species on record is Cavia porcellus. As to the kind of experiment: Evaluated for the open epicutaneous test and no. of animals showing no reaction (0) by (+)4-Methyl-3-methylene-dihydro-furan-2-one sensitization in guinea pigs.
For assay [19], the species on record is Cavia porcellus. As to the kind of experiment: Number of positive animals showing sensitization to (+)4-Methyl-3-methylene-dihydro-furan-2-one in 6 guinea pigs was determined by open epicutaneous test for the compound.
The species entered for assay [20] is Cavia porcellus. As to the kind of experiment: Mean reaction by (-)4-Methyl-3-methylene-dihydro-furan-2-one sensitization in guinea pigs was determined by open epicutaneous test fo the compound.
The species named for assay [21] is Cavia porcellus. As to the kind of experiment: Evaluated for the open epicutaneous test and no. of animals showing erythema covering part (0.5) by (+)4-Methyl-3-methylene-dihydro-furan-2-one sensitization in guinea pigs.
The species entered for assay [22] is Cavia porcellus. As to the kind of experiment: Evaluated for the open epicutaneous test and no. of animals showing erythema covering the whole (1) by (+)4-Methyl-3-methylene-dihydro-furan-2-one sensitization in guinea pigs.
The species entered for assay [23] is Cavia porcellus. As to the kind of experiment: Number of positive animals showing sensitization to (-)4-Methyl-3-methylene-dihydro-furan-2-one in 7 guinea pigs was determined by open epicutaneous test for the compound.
For assay [24], the species on record is Cavia porcellus. The assay can be described thus: Evaluated for the open epicutaneous test and no. of animals showing no reaction (0) by (-)4-Methyl-3-methylene-dihydro-furan-2-one sensitization in guinea pigs.
Assay [25] is filed under the species Cavia porcellus. As to the kind of experiment: Number of positive animals showing sensitization to (+)4-Methyl-3-methylene-dihydro-furan-2-one in 3 guinea pigs was determined by open epicutaneous test for the compound.
The species entered for assay [26] is Cavia porcellus. The assay can be described thus: Mean reaction by (+)4-Methyl-3-methylene-dihydro-furan-2-one sensitization in guinea pigs was determined by open epicutaneous test fo the compound.

With `C=C1C(=O)O[C@H](C)[C@H]1C`, the No. of animals in the assay filed under Cavia porcellus [1] stood at 0; in the assay listed under Cavia porcellus [2] it was 0; in the assay listed under Cavia porcellus [3], 5; in the assay listed under Cavia porcellus [4] it was 2; in the assay filed under Cavia porcellus [5] it was 1; in the assay listed under Cavia porcellus [6], 3. Further, the No. of animals was 2 in the assay filed under Cavia porcellus [7] and 3 in the assay listed under Cavia porcellus [8]. Further, the “No. of positive animals” value in the assay filed under Cavia porcellus [9] came to 6; in the assay listed under Cavia porcellus [10], 5. Moreover, the Mean reaction in the assay listed under Cavia porcellus [11] is 0.5; in the assay listed under Cavia porcellus [12], 0.4.
With `C=C1C(=O)O[C@@H](C)[C@@H]1C`, the No. of animals in the assay filed under Cavia porcellus [1] stood at 0; in the assay filed under Cavia porcellus [2] it was 0; in the assay filed under Cavia porcellus [3] it was 0; in the assay listed under Cavia porcellus [4], 3; in the assay listed under Cavia porcellus [5] it was 0; in the assay filed under Cavia porcellus [6], 5. The figures for the No. of animals in the assay listed under Cavia porcellus [7] and in the assay filed under Cavia porcellus [8] were 8 and 0, respectively. For the same compound, the “No. of positive animals” value is given as 0 in the assay listed under Cavia porcellus [9] and 8 in the assay filed under Cavia porcellus [10]. In addition, the values for the Mean reaction in the assay filed under Cavia porcellus [11] and in the assay listed under Cavia porcellus [12] were 0.8 and 0, respectively.
`C=C1C(=O)OC[C@H]1C`: the “No. of positive animals” value in the assay filed under Cavia porcellus [13] is recorded as 0; in the assay listed under Cavia porcellus [19], 6. The No. of animals stood at 0 in the assay listed under Cavia porcellus [14]; 0 in the assay listed under Cavia porcellus [15]; 0 in the assay filed under Cavia porcellus [16]; 0 in the assay filed under Cavia porcellus [17]; 0 in the assay filed under Cavia porcellus [18]; 6 in the assay listed under Cavia porcellus [8]. The No. of animals was 1 in the assay listed under Cavia porcellus [21] and 5 in the assay filed under Cavia porcellus [22]. Besides, the Mean reaction came to 0 in the assay listed under Cavia porcellus [20] and 0.9 in the assay filed under Cavia porcellus [12].
As for `C=C1C(=O)OC[C@@H]1C`, the “No. of positive animals” value in the assay filed under Cavia porcellus [23] turned out to be 7; in the assay listed under Cavia porcellus [25] it was 3. The No. of animals in the assay listed under Cavia porcellus [14] amounted to 0; in the assay filed under Cavia porcellus [15] it was 5; in the assay filed under Cavia porcellus [16], 0; in the assay filed under Cavia porcellus [17] it was 2; in the assay listed under Cavia porcellus [18], 4; in the assay listed under Cavia porcellus [24], 0. Besides, the No. of animals in the assay listed under Cavia porcellus [21] was found to be 3; in the assay listed under Cavia porcellus [22], 0. The Mean reaction in the assay filed under Cavia porcellus [20] is reported as 1.7; in the assay listed under Cavia porcellus [26] it was 0.2.
